The record followed here is the METLIN SMRT retention time set (Domingo-Almenara et al. 2019).

The series can be described thus: gradient 5% acetonitrile 3 min, to 50% in 2 min, to 85% in 15 min, held 3 min, 100 µL/min. Particulars: column: Zorbax Extend-C18 2.1 x 50 mm; eluents: water / acetonitrile, 0.1% formic acid. In outline:
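Pure standards were analyzed in mixtures of ~100 molecules using HPLC coupled to a quadrupole time-of-flight mass spectrometer, in both positive and negative ionization mode. Separation used a Zorbax Extend-C18 column (2.1 × 50 mm, 1.8 μm) at 100 μL/min, with water and acetonitrile each containing 0.1% formic acid. Dead and dwell volumes were 40 μL and 900 μL, and data were collected over 3 months. Retention time was read from computationally picked adduct peaks, each inspected manually.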
With `CCn1cc(C(=O)NCc2ccc(C)cc2)c(S(=O)(=O)N2CCSCC2)n1`, the RP-LC retention time was found to be 944 s.
Then `CC(C)NC(=O)C1CCN(c2nc3ccc(-c4cccs4)nc3s2)CC1`, with 879 s; and `COc1ccc(N2CC(c3nc(-c4ccc5c(c4)OCO5)no3)CC2=O)cc1Cl` (stereo not given), with 966 s; and `CC(C)(C)c1ccc2c(c1)N(Cc1nc(-c3ccccc3Cl)no1)C(=O)CO2`, with 1240 s.
Then `CN1C(=O)CC[C@]2(C(=O)NCc3cc(F)ccc3F)CCCC[C@@H]12`, with 575 s; and `CC(=O)Nc1cccc(N2CC(C(=O)Nc3cccc(C(F)(F)F)c3)CC2=O)c1` (stereo not given), with 775 s; and `Cc1cc(C)cc(N2CCC(NC(=O)Nc3cccc(F)c3C)C2=O)c1` (stereo not given), with 938 s.
The molecule `CCCn1cc(C(=O)NCC2CCCO2)c2cccnc21` (stereo not given) displayed an RP-LC retention time of 669 s.
The same measure for `Cc1cc(NC(=O)c2cn(-c3ccc(C#N)cc3)cn2)ccc1Br`: 1020 s.
The molecule `c1cc(-c2noc(C3CC3)n2)cc(N2CCOCC2)n1` gave an RP-LC retention time of 695 s.
The same measure for `Cc1ccc(OCCOCC(O)CN(CCO)CCO)cc1C` (stereo not given): 569 s.
The same measure for `COc1ccccc1N1C=C(C#N)S(=O)(=O)c2ccccc21`: 871 s.
The same measure for `CCCC1c2nccn2CCCN1C(=O)c1cccn1C` (stereo not given): 599 s.
Turning to `CC(C)c1csc(-c2csc(S(=O)(=O)NCc3ccc(F)cc3)c2)n1`, the RP-LC retention time was determined as 1120 s.
Then `CCCCOC(=O)Cn1c(=O)c2c(nc3n2CCCCN3c2ccc(OCC)cc2)n(C)c1=O`, with 1100 s.
The same measure for `O=C(CCC(=O)N1CCN(C(c2ccccc2)c2ccccc2)CC1)Nc1noc2ccccc12`: 718 s; for `CCn1cc(-c2nc(CC(=O)NC3CCCCCC3)cs2)c2cccnc21`: 1050 s.
Then `O=C(c1ccc(Br)o1)N1CCC(c2cnn(-c3cccc(F)c3)c2)CC1`, with 1000 s; and `CN1C(=O)c2cccn2CC1CNC(=O)c1n[nH]c(=O)c2ccccc12` (stereo not given), with 764 s; and `Cc1cnc(C2CC2)n1CCNC(=O)c1cccn1C`, with 579 s.
For `CCCN1CCN(C(=O)Cn2c3ccccc3c3cnn(C)c(=O)c32)CC1`, the RP-LC retention time was 590 s.
Then `O=C(NCC1(c2cccs2)CCOCC1)C(=O)Nc1ccc2c(c1)OCCO2`, with 802 s.
The same measure for `COC(=O)c1ccc2c(c1)nnn2Cc1cccc(OC)c1`: 880 s.
The same measure for `Cc1cccc(-c2noc(Cn3nc(-c4ccccc4)ccc3=O)n2)c1`: 1060 s; for `O=C(C1CCN(c2ccc(-n3cccn3)nn2)CC1)N1CCN(c2ncccn2)CC1`: 605 s.
`O=C1C(O)=C(S(=O)(=O)c2ccc(Cl)cc2)C(c2ccc(F)cc2)N1Cc1ccco1` (stereo not given) registered an RP-LC retention time of 972 s.
Take `Cc1ccccc1NC(=O)Cn1c(N)nc(C)c(C)c1=O`: the RP-LC retention time worked out at 596 s.
With `CCN1CCN(CCCNc2nnc(-c3nc(C4CC4)no3)c3ccccc23)CC1`, the RP-LC retention time turned out to be 584 s.
`O=C(c1cn(-c2cc(N3CCSCC3)ncn2)cn1)N1CCCc2ccccc21` displayed an RP-LC retention time of 780 s.
Then `CC(C)c1ccc(NC(=O)C(=O)NCC2(CO)CC2)cc1`, with 797 s.
`COc1ccc(NC(=O)N2CCC(N3C[C@H]4C[C@H](C3)[C@H]3CCCC(=O)N3C4)CC2)cc1`: the RP-LC retention time turned out to be 573 s.
The same measure for `COc1ccc(-c2nc(C)cc(C)c2CNS(=O)(=O)c2ccc(C#N)cc2)cc1`: 636 s; for `COc1ccc(OC)c(S(=O)(=O)Nc2ccc(-c3cn4ccc(C)nc4n3)cc2)c1`: 642 s.
Then `O=C(Nc1ccc2c(c1)OCO2)Nc1cccn2c(C3CCC3)nnc12`, with 801 s; and `Cn1cc(S(=O)(=O)N2CCC(C(=O)NCc3ccccc3)CC2)cc1C(=O)N1CCCC1`, with 1040 s; and `Cc1ccc(C)c(NC(=O)C2CCN(S(=O)(=O)c3cc(-c4noc(C5CC5)n4)cs3)CC2)c1`, with 1020 s.
Regarding `Cc1cc(C)c2c(N3CCOCC3)nc(C(=O)N3CCN(C4CCCCC4)CC3)nc2n1`, the RP-LC retention time was determined as 574 s.
The same measure for `O=C(Cn1cccc1-c1nnc(C2CCC2)o1)N1CCN(c2ccccc2)CC1`: 898 s; for `COc1ccc(NC(=O)CSc2nc3nc(C)cc(C)n3n2)c(OC)c1`: 713 s.
`O=C(CCC1CCN(S(=O)(=O)c2ccccc2)CC1)NCc1ccc(F)cc1` yielded an RP-LC retention time of 882 s.
The same measure for `COCc1nc2ccccc2n1CC(=O)NCC1CCCO1` (stereo not given): 532 s; for `O=C(Cn1cccc1-c1nnc(C2CCC2)o1)NCc1ccc(F)cc1`: 832 s.
The same measure for `Cc1ccc(CNC(=O)c2cccc(-c3nc4cccnc4n3C)c2)o1`: 722 s; for `CCC1CN1P(=O)(Oc1ccc(Cl)cc1)N1CC1CC` (stereo not given): 980 s; for `COc1ccc(CNC(=O)C2CCN(S(=O)(=O)c3cc(-c4noc(C)n4)cs3)CC2)cc1`: 831 s.
Regarding `Cc1cc(Cl)ccc1NC(=O)Cn1nc(C(=O)N2CCCCC2)c2ccccc21`, the RP-LC retention time is 778 s.
Then `O=C(O)c1cn(Cc2cccc(F)c2)c(=O)c2ccccc12`, with 822 s; and `Cc1cccc(CNC(=O)CC2CCN(C(=O)c3[nH]c(C)c(C(=O)OC(C)C)c3C)CC2)c1`, with 880 s; and `O=C(NCCCc1ccccc1)C1CCc2nc(N3CCOCC3)ncc2C1` (stereo not given), with 744 s.
The same measure for `Cc1cccc(C)c1Nc1c(-c2ccc(F)cc2)nc2cnccn12`: 901 s.
On to `CCOc1ccc(-n2ccn3c(CCCC(=O)N4CCN(c5ccccn5)CC4)nnc3c2=O)cc1`, for which the RP-LC retention time came out at 606 s.
Then `O=C(Cn1nc(C(=O)N2CCCC2)c2ccccc21)N1CCC(N2CCCCC2)CC1`, with 581 s; and `CC(C)NC(=O)c1ccc(OCC2CCN(C(=O)C3(c4ccccc4)CC3)CC2)cc1`, with 897 s; and `COc1cccc(-n2c(=O)c(C(=O)Nc3ccc(F)cc3F)c(O)c3cccnc32)c1`, with 1220 s.
For `CCOC(=O)Cc1ccc(NC(=O)NC2CCN(c3ccc(C)c(C)c3)C2=O)cc1` (stereo not given), the RP-LC retention time was determined as 877 s.
Take `C=CCN1C(=O)COc2ccc(-c3nc(NC(=O)Cc4ccccc4)sc3C)cc21`: the RP-LC retention time came to 1000 s.
The same measure for `CCC(=O)Nc1ccc2c(c1)nc(CN1CCN(S(C)(=O)=O)CC1)n2CC`: 586 s; for `c1cc(-c2nc(CC3CCCNC3)no2)ccn1` (stereo not given): 552 s; for `CCOC(=O)c1c(C)c(C(=O)CN(CC2CCCO2)C(=O)c2cccc(F)c2)c(C)n1C` (stereo not given): 920 s.
Regarding `O=c1n(Cc2ccc(Cl)cc2)nc2ccc(S(=O)(=O)N3CCCCC3)cn12`, the RP-LC retention time worked out at 1000 s.
With `CC(=O)N1CCCC1c1nc(C2CN(S(=O)(=O)C(C)C)C2)no1` (stereo not given), the RP-LC retention time turned out to be 635 s.
The same measure for `CCCN1C(=O)COc2ccc(-c3noc(C4CC(=O)N(c5ccccc5)C4)n3)cc21` (stereo not given): 948 s.
Molecule `COc1ccc(NC(=O)c2cc(C)n3nc(-c4ccco4)cc3n2)c(OC)c1` showed an RP-LC retention time of 1100 s.
Then `O=C(c1ccc2cc[nH]c2c1)N1CCN(c2cc(-c3ccccc3)[nH]n2)CC1`, with 748 s.
The same measure for `Cc1ccc(N2C=C(C(=O)N3CCOCC3)S(=O)(=O)c3ccc(Cl)cc32)cc1Cl`: 970 s.
`CCn1nnc2ccc(-c3noc(Cc4ccc(OC)c(OC)c4)n3)cc21`: the RP-LC retention time is 864 s.
With `Cc1cccc(Nc2c(-c3ccc(N(C)C)cc3)nc3cnccn23)c1C`, the RP-LC retention time was found to be 900 s.
As to `CCc1nnc(C2CN(C)CC23CCN(S(=O)(=O)c2ccc(C)c(Cl)c2)CC3)o1` (stereo not given), the RP-LC retention time came out at 675 s.
The same measure for `CCOC(=O)c1cn(Cc2cccc(F)c2)c2nc(C)ccc2c1=O`: 878 s.
The same measure for `Clc1ccccc1-c1ccnc2nc(-c3ccccc3)nn12`: 928 s.
For the molecule `Cc1ccc(S(=O)(=O)CCc2noc(C(=O)NCCCN3CCCC(C)C3)n2)cc1` (stereo not given), the RP-LC retention time turned out to be 632 s.
Then `O=C(c1cccnc1)N1CCC(c2noc(-c3cnccn3)n2)C1` (stereo not given), with 581 s.
The same measure for `O=C(NCc1cccnc1)c1cccn2c(=O)c3cc(Cl)ccc3nc12`: 657 s; for `O=C(Nc1cccc(Cl)c1F)N1CCCC(Cn2c(C3CC3)nc3cccnc32)C1` (stereo not given): 723 s.
Then `COc1ccc2c(c1)CCN(C(=O)CNC(=O)c1ccc(=O)[nH]c1)C2`, with 583 s; and `CC(C)(C)c1csc(-c2csc(S(=O)(=O)Nc3ccccc3F)c2)n1`, with 1120 s; and `O=C(NC1CC1)c1ccc(OCC2CCCN2C(=O)c2cccc(F)c2)cc1` (stereo not given), with 778 s.
`CC(=O)N1CCc2cc(N3CC(C(=O)Nc4cccc(C)c4)CC3=O)ccc21` (stereo not given) came in with an RP-LC retention time of 712 s.
`COc1ccc(-c2nnc(CC(=O)N3CCCC3)o2)cc1` registered an RP-LC retention time of 677 s.
The same measure for `CCOc1ccc(-c2nc(C3CC(=O)N(c4ccc(Cl)cc4)C3)no2)cc1` (stereo not given): 1130 s.
